# Assays:
# Format in all cases: functional
# Details in all cases: read-out: DIZ
# Aspergillus niger [1] = experiment: Antifungal activity against Aspergillus niger at 0.25 mol/L after 2 to 4 days by paper disc method
# Aspergillus niger [2] = experiment: Antifungal activity against Aspergillus niger at 0.13 mol/L after 2 to 4 days by paper disc method
# Aspergillus niger [3] = experiment: Antifungal activity against Aspergillus niger at 0.06 mol/L after 2 to 4 days by paper disc method
# Aspergillus niger [4] = experiment: Antifungal activity against Aspergillus niger at 0.03 mol/L after 2 to 4 days by paper disc method
# Penicillium citrinum [5] = experiment: Antifungal activity against Penicillium citrinum at 0.25 mol/L after 2 to 4 days by paper disc method
# Penicillium citrinum [6] = experiment: Antifungal activity against Penicillium citrinum at 0.13 mol/L after 2 to 4 days by paper disc method
# Penicillium citrinum [7] = experiment: Antifungal activity against Penicillium citrinum at 0.06 mol/L after 2 to 4 days by paper disc method
# Penicillium citrinum [8] = experiment: Antifungal activity against Penicillium citrinum at 0.03 mol/L after 2 to 4 days by paper disc method
# Escherichia coli [9] = experiment: Antibacterial activity against Escherichia coli at 0.25 mol/L after 12 to 24 hrs by paper disc method
# Escherichia coli [10] = experiment: Antibacterial activity against Escherichia coli at 0.13 mol/L after 12 to 24 hrs by paper disc method
# Escherichia coli [11] = experiment: Antibacterial activity against Escherichia coli at 0.06 mol/L after 12 to 24 hrs by paper disc method
# Escherichia coli [12] = experiment: Antibacterial activity against Escherichia coli at 0.03 mol/L after 12 to 24 hrs by paper disc method
# Staphylococcus aureus [13] = experiment: Antibacterial activity against Staphylococcus aureus at 0.25 mol/L after 12 to 24 hrs by paper disc method
# Staphylococcus aureus [14] = experiment: Antibacterial activity against Staphylococcus aureus at 0.13 mol/L after 12 to 24 hrs by paper disc method
# Staphylococcus aureus [15] = experiment: Antibacterial activity against Staphylococcus aureus at 0.06 mol/L after 12 to 24 hrs by paper disc method
# Staphylococcus aureus [16] = experiment: Antibacterial activity against Staphylococcus aureus at 0.03 mol/L after 12 to 24 hrs by paper disc method
smiles,measurement,setting,value
COc1ccc(/C=C/C=N/[C@H](C(=O)O)C(C)C)cc1,zone of inhibition at 250000 µM,Aspergillus niger [1],16.7 mm
same,zone of inhibition at 130000 µM,Aspergillus niger [2],13.3 mm
same,zone of inhibition at 60000 µM,Aspergillus niger [3],10.3 mm
same,zone of inhibition at 30000 µM,Aspergillus niger [4],9 mm
same,zone of inhibition at 250000 µM,Penicillium citrinum [5],14.3 mm
same,zone of inhibition at 130000 µM,Penicillium citrinum [6],11.7 mm
same,zone of inhibition at 60000 µM,Penicillium citrinum [7],12.7 mm
same,zone of inhibition at 30000 µM,Penicillium citrinum [8],8 mm
same,zone of inhibition at 250000 µM,Escherichia coli [9],9 mm
same,zone of inhibition at 130000 µM,Escherichia coli [10],8 mm
same,zone of inhibition at 60000 µM,Escherichia coli [11],12 mm
same,zone of inhibition at 30000 µM,Escherichia coli [12],8 mm
same,zone of inhibition at 250000 µM,Staphylococcus aureus [13],9 mm
same,zone of inhibition at 130000 µM,Staphylococcus aureus [14],8 mm
same,zone of inhibition at 60000 µM,Staphylococcus aureus [15],8 mm
same,zone of inhibition at 30000 µM,Staphylococcus aureus [16],8 mm

# Source: ChEMBL document CHEMBL3751674, “Synthesis, antimicrobial activity of Schiff base compounds of cinnamaldehyde and amino acids” (2016)
